Measured values published in article PMC6301967, “Molecular comparison of Neanderthal and Modern Human adenylosuccinate lyase” (Scientific Reports, 2018).

Key:
[1] = biological target: T1, hADSL (modern human adenylosuccinate lyase) (Homo sapiens, UniProt P30566); test: small angle X-ray scattering; format: binding; conditions: 1 mM product(s), with fumarate; 20 °C; no curve change with AICAR alone
T1 construct: gene ADSL; N-terminal thrombin-cleavable His tag (pET-14b), E. coli Rosetta2 (DE3); tag cut, but kept for the domain 3 mutants; homotetramer; Val429
T1 sequence (P30566 1-484): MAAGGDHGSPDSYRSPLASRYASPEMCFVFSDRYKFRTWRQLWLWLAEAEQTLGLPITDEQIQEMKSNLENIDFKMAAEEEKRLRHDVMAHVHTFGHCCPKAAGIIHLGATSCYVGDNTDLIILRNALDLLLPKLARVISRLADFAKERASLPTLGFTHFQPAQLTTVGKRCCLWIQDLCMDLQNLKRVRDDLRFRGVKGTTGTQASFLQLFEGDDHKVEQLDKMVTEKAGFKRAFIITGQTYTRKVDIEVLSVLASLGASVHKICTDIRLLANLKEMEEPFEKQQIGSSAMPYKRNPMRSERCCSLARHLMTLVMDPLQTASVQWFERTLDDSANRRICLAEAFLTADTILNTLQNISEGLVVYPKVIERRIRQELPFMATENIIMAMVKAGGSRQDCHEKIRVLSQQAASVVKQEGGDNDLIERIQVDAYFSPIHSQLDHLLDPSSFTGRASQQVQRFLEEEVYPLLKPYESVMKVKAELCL

[2] = biological target: T2, nADSL (Neanderthal adenylosuccinate lyase); test: isothermal titration calorimetry; format: binding, Homo sapiens neanderthalensis; conditions: 10 mM HEPES pH 7.5, 100 mM NaCl, 1 mM DTT, 20 °C; 90 µM protein in cell
T2 construct: gene ADSL; Neanderthal (ancestral Ala429) variant, equals human ADSL with V429A; N-terminal thrombin-cleavable His tag (pET-14b), cut; E. coli Rosetta2 (DE3); homotetramer

[3] = biological target: T1, hADSL (modern human adenylosuccinate lyase); test: isothermal titration calorimetry; format: binding
[4] = system: T2, nADSL (Neanderthal adenylosuccinate lyase); test: absorbance at […] nm, SAMP breakdown; format: biochemical, Homo sapiens neanderthalensis; conditions: forward reaction, room temperature; positive cooperativity, Hill coefficient 1.8; read-out: K0.5
[5] = biological target: T1, hADSL (modern human adenylosuccinate lyase); test: absorbance at […] nm, SAMP formation; format: biochemical; conditions: reverse reaction, 1 mM AMP, room temperature; Michaelis-Menten fit
[6] = system: T2, nADSL (Neanderthal adenylosuccinate lyase); test: absorbance at […] nm, SAMP formation; format: biochemical, Homo sapiens neanderthalensis; conditions: reverse reaction, 1 mM AMP, room temperature; Michaelis-Menten fit
purified protein = substrate: O=C(O)C[C@H](Nc1ncnc2c1ncn2[C@@H]1O[C@H](COP(=O)(O)O)[C@@H](O)[C@H]1O)C(=O)O; test: purified protein; format: biochemical, Homo sapiens; conditions: room temperature
[7] = biological target: the molecule itself; test: SEC; Superdex 200 in 10 mM HEPES pH 7.5, 100 mM NaCl, 1 mM DTT; last step of the purification; single peak
[8] = biological target: the molecule itself; test: crystal structure; nADSL apo (1.7 Å), with AMP/fumarate (2.3 Å) and with AICAR/fumarate; vapour diffusion, 10 mg/mL protein; homotetramer
[9] = His tag not cleaved, 0.01 mg/mL enzyme, cooperative model fit

Molecule: NC(=O)c1ncn([C@@H]2O[C@H](COP(=O)(O)O)[C@@H](O)[C@H]2O)c1N [AICAR]
- small angle X-ray scattering [1]: addition of both AMP/fumarate or AICAR/fumarate to the protein results in a similar altered scattering

Molecule: Nc1ncnc2c1ncn2[C@@H]1O[C@H](COP(=O)(O)O)[C@@H](O)[C@H]1O [AMP]
- Kd [2]: ~25 µM
- Kd [3]: ~25 µM

Molecule: O=C(O)C[C@H](Nc1ncnc2c1ncn2[C@@H]1O[C@H](COP(=O)(O)O)[C@@H](O)[C@H]1O)C(=O)O [SAMP]
- Km [4]: 1100 nM

Molecule: O=C(O)/C=C/C(=O)O [fumarate]
- Km [5]: 80 µM
- Km [6]: 66 µM

B1: modern human adenylosuccinate lyase (enzyme, UniProt P30566 1-484, looked up)
chain: MAAGGDHGSPDSYRSPLASRYASPEMCFVFSDRYKFRTWRQLWLWLAEAEQTLGLPITDEQIQEMKSNLENIDFKMAAEEEKRLRHDVMAHVHTFGHCCPKAAGIIHLGATSCYVGDNTDLIILRNALDLLLPKLARVISRLADFAKERASLPTLGFTHFQPAQLTTVGKRCCLWIQDLCMDLQNLKRVRDDLRFRGVKGTTGTQASFLQLFEGDDHKVEQLDKMVTEKAGFKRAFIITGQTYTRKVDIEVLSVLASLGASVHKICTDIRLLANLKEMEEPFEKQQIGSSAMPYKRNPMRSERCCSLARHLMTLVMDPLQTASVQWFERTLDDSANRRICLAEAFLTADTILNTLQNISEGLVVYPKVIERRIRQELPFMATENIIMAMVKAGGSRQDCHEKIRVLSQQAASVVKQEGGDNDLIERIQVDAYFSPIHSQLDHLLDPSSFTGRASQQVQRFLEEEVYPLLKPYESVMKVKAELCL
notes: adenylosuccinate lyase (ADSL), modern human (Val429); Expressed from pET-14b with a thrombin-cleavable N-terminal histidine tag; also called hADSL; native hADSL; source: E. coli Rosetta2 (DE3), purified (HisTrap, thrombin cleavage, benzamidine-sepharose, Superdex 200); not shown: histidine tag, N-terminal, cleaved
- K0.5 (purified protein; forward reaction, positive cooperativity, Hill coefficient 1.6): 1.1 µM
- stoichiometry N [7]: 4

B2: hADSL (modern human adenylosuccinate lyase) (Homo sapiens; R426H) (protein)
chain: MAAGGDHGSPDSYRSPLASRYASPEMCFVFSDRYKFRTWRQLWLWLAEAEQTLGLPITDEQIQEMKSNLENIDFKMAAEEEKRLRHDVMAHVHTFGHCCPKAAGIIHLGATSCYVGDNTDLIILRNALDLLLPKLARVISRLADFAKERASLPTLGFTHFQPAQLTTVGKRCCLWIQDLCMDLQNLKRVRDDLRFRGVKGTTGTQASFLQLFEGDDHKVEQLDKMVTEKAGFKRAFIITGQTYTRKVDIEVLSVLASLGASVHKICTDIRLLANLKEMEEPFEKQQIGSSAMPYKRNPMRSERCCSLARHLMTLVMDPLQTASVQWFERTLDDSANRRICLAEAFLTADTILNTLQNISEGLVVYPKVIERRIRQELPFMATENIIMAMVKAGGSRQDCHEKIRVLSQQAASVVKQEGGDNDLIEHIQVDAYFSPIHSQLDHLLDPSSFTGRASQQVQRFLEEEVYPLLKPYESVMKVKAELCL
notes: N-terminal thrombin-cleavable His tag (pET-14b), E. coli Rosetta2 (DE3); tag cut, but kept for the domain 3 mutants; homotetramer; Val429
- K0.5 (purified protein; [9]): 0.75 ± 0.06 µM

B3: Neanderthal adenylosuccinate lyase (enzyme)
chain: MAAGGDHGSPDSYRSPLASRYASPEMCFVFSDRYKFRTWRQLWLWLAEAEQTLGLPITDEQIQEMKSNLENIDFKMAAEEEKRLRHDVMAHVHTFGHCCPKAAGIIHLGATSCYVGDNTDLIILRNALDLLLPKLARVISRLADFAKERASLPTLGFTHFQPAQLTTVGKRCCLWIQDLCMDLQNLKRVRDDLRFRGVKGTTGTQASFLQLFEGDDHKVEQLDKMVTEKAGFKRAFIITGQTYTRKVDIEVLSVLASLGASVHKICTDIRLLANLKEMEEPFEKQQIGSSAMPYKRNPMRSERCCSLARHLMTLVMDPLQTASVQWFERTLDDSANRRICLAEAFLTADTILNTLQNISEGLVVYPKVIERRIRQELPFMATENIIMAMVKAGGSRQDCHEKIRVLSQQAASVVKQEGGDNDLIERIQADAYFSPIHSQLDHLLDPSSFTGRASQQVQRFLEEEVYPLLKPYESVMKVKAELCL
notes: Expressed from pET-14b with a thrombin-cleavable N-terminal histidine tag; also called nADSL; ancestral Ala429 ADSL variant; source: E. coli Rosetta2 (DE3), purified (HisTrap, thrombin cleavage, benzamidine-sepharose, Superdex 200); not shown: histidine tag, N-terminal, cleaved
- stoichiometry N [8]: 4

B4: hADSL (modern human adenylosuccinate lyase) (Homo sapiens; D422Y) (protein)
chain: MAAGGDHGSPDSYRSPLASRYASPEMCFVFSDRYKFRTWRQLWLWLAEAEQTLGLPITDEQIQEMKSNLENIDFKMAAEEEKRLRHDVMAHVHTFGHCCPKAAGIIHLGATSCYVGDNTDLIILRNALDLLLPKLARVISRLADFAKERASLPTLGFTHFQPAQLTTVGKRCCLWIQDLCMDLQNLKRVRDDLRFRGVKGTTGTQASFLQLFEGDDHKVEQLDKMVTEKAGFKRAFIITGQTYTRKVDIEVLSVLASLGASVHKICTDIRLLANLKEMEEPFEKQQIGSSAMPYKRNPMRSERCCSLARHLMTLVMDPLQTASVQWFERTLDDSANRRICLAEAFLTADTILNTLQNISEGLVVYPKVIERRIRQELPFMATENIIMAMVKAGGSRQDCHEKIRVLSQQAASVVKQEGGDNYLIERIQVDAYFSPIHSQLDHLLDPSSFTGRASQQVQRFLEEEVYPLLKPYESVMKVKAELCL
notes: as for B2
- K0.5 (purified protein; [9]): 0.36 ± 0.03 µM
